Test results from publication PMC5748833, “Synthesis and Biological Evaluation of Novel Hybrid Molecules Containing Purine, Coumarin and Isoxazoline or Isoxazole Moieties” (The Open Medicinal Chemistry Journal, 2017).
Values joined by “and” are separate entries in the source; they are usually repeats but may differ in a detail not shown here. Equal entries are not always repeated.

Key:
[1] = Reducing activity of the stable radical DPPH; details: 100 μM compound, after 20 min
Procedure: 2.2.2.1 Determination of the reducing activity of the stable radical 1, 1-diphenyl-picrylhydrazyl (DPPH)
To a solution of DPPH (100μM) in absolute ethanol an equal volume of the compounds dissolved in ethanol was added. As control solution ethanol was used. The concentration of the solutions of the compounds was 100μM. After 20 and 60 min at room temperature the absorbance was recorded at 517 nm (Table 5). NDGA was used as a standard.
The compounds were studied for their antioxidant activity by the use of the stable 2,2-diphenyl-1-picrylhydrazyl radical (DPPH) at concentration 0.1mM after 20 min. […] This purple colour generally disappears in the presence of an antioxidant. The reduction of absorbance is a measure of the free DPPH due to the action of the antioxidant. The antioxidant activity was expressed as the RA% (Reducing Activity). […] Within the group of derivatives 4 the presence of the morpholinyl or piperidinyl rings at position A as well as the carbonyl group at position B, hinder the interaction of the compounds to the free stable radical DPPH.

[2] = target: T1, soybean lipoxygenase (Glycine max, UniProt P08170); assay: Soybean lipoxygenase inhibition in vitro; type: biochemical; details: for %LOX @ 100μΜ: 100 μM compound
T1 construct: purchased Sigma Chemical, Co. (St. Louis, MO, USA)
T1 sequence (P08170 1-839): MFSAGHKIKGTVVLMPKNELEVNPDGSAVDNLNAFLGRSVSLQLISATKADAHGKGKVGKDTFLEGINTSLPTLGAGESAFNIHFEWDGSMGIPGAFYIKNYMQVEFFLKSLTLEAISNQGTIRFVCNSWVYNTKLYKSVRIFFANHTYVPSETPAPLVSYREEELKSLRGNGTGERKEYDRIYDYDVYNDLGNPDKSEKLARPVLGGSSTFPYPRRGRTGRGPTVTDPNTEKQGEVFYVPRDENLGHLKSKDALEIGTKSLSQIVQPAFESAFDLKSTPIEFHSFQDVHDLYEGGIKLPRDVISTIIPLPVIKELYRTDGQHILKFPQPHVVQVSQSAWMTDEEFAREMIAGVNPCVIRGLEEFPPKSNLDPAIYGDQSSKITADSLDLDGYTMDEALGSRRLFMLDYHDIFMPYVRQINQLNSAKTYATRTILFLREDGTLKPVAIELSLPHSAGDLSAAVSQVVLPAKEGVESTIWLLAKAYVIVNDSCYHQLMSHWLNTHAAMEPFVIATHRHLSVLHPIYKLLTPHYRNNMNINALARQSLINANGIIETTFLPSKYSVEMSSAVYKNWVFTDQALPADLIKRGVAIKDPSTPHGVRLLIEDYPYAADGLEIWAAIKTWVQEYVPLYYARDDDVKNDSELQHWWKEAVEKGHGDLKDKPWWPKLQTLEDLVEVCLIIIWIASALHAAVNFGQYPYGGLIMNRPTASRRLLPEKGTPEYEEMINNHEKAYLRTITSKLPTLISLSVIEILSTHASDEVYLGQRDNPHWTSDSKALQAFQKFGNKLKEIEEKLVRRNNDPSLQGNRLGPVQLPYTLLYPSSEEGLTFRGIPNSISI
Procedure: 2.2.2.4 Soybean lipoxygenase inhibition study in vitro [14]
In vitro study was evaluated as reported previously. The tested compounds dissolved in ethanol were incubated at room temperature with sodium linoleate (0.1 mM) and 0.2 ml of enzyme solution (1/9 x10^-4 w/v in saline). […] Several concentrations were used for the determination of IC50 values (Table 5).
LO is the key enzyme in leukotriene biosynthesis. Leukotrienes derived from the biotransformation of arachidonic acid catalyzed by 5-lipoxygenase (5-LO), are important inflammatory mediators implicated in several diseases. LOs play a role in membrane lipid peroxidation by forming hydroperoxides in the lipid bilayer. […] Most of the LO inhibitors are antioxidants or free radical scavengers, since lipoxygenation occurs via a carbon-centered radical. The evaluation of the novel coumarin hybrids against soybean lipoxygenase LO was accomplished by the UV-based enzyme assay.

[3] = target: T2, electric eel acetylcholinesterase (eeAChE) (Electrophorus electricus, UniProt O42275); assay: biochemical; type: biochemical; details: for inhibition at 10 µM: read-out: eeAChE % inhibn. @ 10 μΜ; for IC50: read-out: eeAChE IC50 μΜ
T2 construct: purchased Sigma
T2 sequence (O42275 24-633): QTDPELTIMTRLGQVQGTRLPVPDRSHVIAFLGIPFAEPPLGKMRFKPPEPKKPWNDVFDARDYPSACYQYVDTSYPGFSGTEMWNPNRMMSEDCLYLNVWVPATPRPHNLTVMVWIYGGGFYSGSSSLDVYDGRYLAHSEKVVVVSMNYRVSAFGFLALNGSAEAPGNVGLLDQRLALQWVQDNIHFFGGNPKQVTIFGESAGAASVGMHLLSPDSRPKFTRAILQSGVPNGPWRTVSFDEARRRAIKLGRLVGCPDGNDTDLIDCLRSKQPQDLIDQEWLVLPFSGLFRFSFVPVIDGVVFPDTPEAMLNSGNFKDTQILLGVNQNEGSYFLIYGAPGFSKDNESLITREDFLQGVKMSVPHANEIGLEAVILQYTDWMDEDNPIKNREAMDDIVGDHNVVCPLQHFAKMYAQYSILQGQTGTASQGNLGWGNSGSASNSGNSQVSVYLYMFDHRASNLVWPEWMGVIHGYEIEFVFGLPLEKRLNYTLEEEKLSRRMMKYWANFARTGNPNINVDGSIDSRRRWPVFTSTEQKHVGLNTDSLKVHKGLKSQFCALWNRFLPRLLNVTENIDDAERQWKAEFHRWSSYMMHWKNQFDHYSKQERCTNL
Source text: (§1) 2.2.2.5 Inhibition Study on ChEs in vitro
(§2) In vitro inhibition of electric eel acetylcholinesterase (eeAChE; 463 U/mg, Sigma) and equine serum butyrylcholinesterase (esBChE; 13 U/mg, Sigma) was investigated with a 96-well plate procedure based on the classical Ellman’s spectrophotometric test, as already described.

[4] = target: T3, equine serum butyrylcholinesterase (esBChE) (Equus caballus, UniProt P81908); assay: Inhibition of esBChE (Ellman's test); type: biochemical; details: for inhibition at 10 µM: read-out: esBChE % inhibn. @ 10 μΜ
T3 construct: purchased Sigma; host or cells: equine serum
T3 sequence (P81908 whole entry): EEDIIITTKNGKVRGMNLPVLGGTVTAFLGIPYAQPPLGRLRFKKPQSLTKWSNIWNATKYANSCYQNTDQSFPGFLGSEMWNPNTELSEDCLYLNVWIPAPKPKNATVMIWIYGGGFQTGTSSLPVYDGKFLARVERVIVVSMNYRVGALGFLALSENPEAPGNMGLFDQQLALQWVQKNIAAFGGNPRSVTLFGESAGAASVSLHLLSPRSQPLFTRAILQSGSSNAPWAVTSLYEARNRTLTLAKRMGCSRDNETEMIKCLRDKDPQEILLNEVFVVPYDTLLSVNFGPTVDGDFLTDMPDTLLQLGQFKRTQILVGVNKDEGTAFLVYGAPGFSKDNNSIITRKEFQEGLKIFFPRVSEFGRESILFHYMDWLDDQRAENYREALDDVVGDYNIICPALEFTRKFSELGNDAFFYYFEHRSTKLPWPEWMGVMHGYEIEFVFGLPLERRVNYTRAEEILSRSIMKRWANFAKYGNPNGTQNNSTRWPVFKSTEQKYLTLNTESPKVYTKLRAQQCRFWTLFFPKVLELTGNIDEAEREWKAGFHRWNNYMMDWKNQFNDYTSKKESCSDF
Source text: as §1, §2

[5] = target: T4, rat monoamine oxidase A (Rattus norvegicus, UniProt P21396); assay: Inhibition of MAO-A (spectrofluorimetric method); type: biochemical; details: 10 μM compound
T4 construct: from tissue
T4 sequence (P21396 1-526): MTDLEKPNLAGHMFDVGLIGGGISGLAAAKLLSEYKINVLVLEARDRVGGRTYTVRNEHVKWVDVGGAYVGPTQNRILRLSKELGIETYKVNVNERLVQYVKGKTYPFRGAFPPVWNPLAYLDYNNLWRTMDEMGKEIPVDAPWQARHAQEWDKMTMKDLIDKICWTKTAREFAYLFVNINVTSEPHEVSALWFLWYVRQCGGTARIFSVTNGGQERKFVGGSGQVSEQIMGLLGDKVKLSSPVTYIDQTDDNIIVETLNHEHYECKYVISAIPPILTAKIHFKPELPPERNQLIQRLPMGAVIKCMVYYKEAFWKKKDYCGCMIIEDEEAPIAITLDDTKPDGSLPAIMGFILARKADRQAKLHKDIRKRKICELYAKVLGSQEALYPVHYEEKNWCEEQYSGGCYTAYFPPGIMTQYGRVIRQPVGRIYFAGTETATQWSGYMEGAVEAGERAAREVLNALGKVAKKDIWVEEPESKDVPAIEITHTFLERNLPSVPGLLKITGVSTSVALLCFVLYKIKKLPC
Source text: (§3) 2.2.2.6 Inhibition Study on MAOs in vitro
(§4) Inhibition of rat monoamine oxidase A and B was studied by means of a spectrofluorimetric method as previously detailed.

[6] = target: T5, rat monoamine oxidase B (Rattus norvegicus, UniProt P19643); assay: Inhibition of MAO-B (spectrofluorimetric method); type: biochemical; details: 10 μM compound
T5 construct: from tissue
T5 sequence (P19643 1-520): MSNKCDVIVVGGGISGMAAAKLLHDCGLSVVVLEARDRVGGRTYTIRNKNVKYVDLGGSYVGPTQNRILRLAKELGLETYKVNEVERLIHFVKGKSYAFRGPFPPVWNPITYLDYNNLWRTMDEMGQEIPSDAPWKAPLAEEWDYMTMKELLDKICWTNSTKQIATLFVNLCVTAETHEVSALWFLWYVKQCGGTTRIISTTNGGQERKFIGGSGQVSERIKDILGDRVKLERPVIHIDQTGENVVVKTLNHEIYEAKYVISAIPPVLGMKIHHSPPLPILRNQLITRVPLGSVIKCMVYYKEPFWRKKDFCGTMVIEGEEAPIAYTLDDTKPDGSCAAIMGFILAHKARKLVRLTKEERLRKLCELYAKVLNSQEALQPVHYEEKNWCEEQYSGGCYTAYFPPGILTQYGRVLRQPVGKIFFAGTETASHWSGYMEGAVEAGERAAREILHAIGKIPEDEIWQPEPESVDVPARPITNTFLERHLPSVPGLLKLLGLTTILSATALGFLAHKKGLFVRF
Source text: as §3, §4

[7] = Inhibition of linoleic acid lipid peroxidation (AAPH); details: 100 μM compound, 37°C
Procedure: 2.2.2.3 Inhibition of linoleic acid lipid peroxidation
Production of conjugated diene hydroperoxide by oxidation of linoleic acid sodium salt in an aqueous solution was monitored at 234 nm. 2,2’-Azobis(2-amidinopropane) dihydrochloride (AAPH) was used as a free radical initiator. 10 μl of the 16 mM linoleic acid sodium salt solution was added to the UV cuvette containing 0.93 ml of 0.05 M phosphate buffer, pH 7.4 prethermostated at 37°C. The oxidation reaction was initiated at 37°C under air by the addition of 50 μl of 40 mM AAPH solution. Oxidation was carried out in the presence of 10 μl of the examined compounds (stock solution in DMSO). In the assay without antioxidant, lipid oxidation was measured in the presence of the same level of DMSO. The rate of oxidation at 37°C was monitored by recording the increase in absorption at 234 nm caused by conjugated diene hydroperoxides (Table 5). Trolox was used as a standard.
Anti-lipid peroxidation activity. The water-soluble azo compound AAPH has been extensively used as a clean and controllable source of thermally produced alkyl peroxyl free radicals, through spontaneous thermal decomposition. […] In the AAPH assay, the highly reactive alkylperoxyl radicals are intercepted mainly by a hydrogen atom transfer (HAT) from the antioxidant.

Row | Compound | RA% @ 100μΜ (reducing activity, DPPH) [1] | %LOX @ 100μΜ [2] | inhibition at 10 µM [3] [%] | inhibition at 10 µM [4] [%] | MAO-A (%) @ 10μΜ [5] [%] | MAO-B (%) @ 10μΜ [6] | IC50 ([2]; read-out: LOX IC50 μΜ) | IC50 [3] [µM] | IC50 ([4]; read-out: esBChE IC50 μΜ) [µM] | inhibition at 100 µM ([2]; read-out: %LOX @ 100μΜ) [%] | LP % @ 100μΜ (inhibition of lipid peroxidation) [7] [%]
1 | Cc1cc(=O)oc2ccc(OCc3cc(Cn4cnc5c(N6CCCCC6)ncnc54)no3)cc12 [13a, 4-methyl-6-({3-[(6-piperidin-1-yl-9H-purin-9-yl)methyl]isoxazol-5-yl}methoxy)-2H-chromen-2-one] | no | no | 40 | 23 | 47 | 33% | – | – | – | – | –
2 | O=c1ccc2ccc(OCc3cc(Cn4cnc5c(N6CCCCC6)ncnc54)no3)cc2o1 [13e] | no | – | – | – | 18 | 15% | 62.5 µM and 62 µM | 1.73 | 18 | – | –
3 | Cc1cc(=O)oc2ccc(OCc3cc(Cn4cnc5c(N6CCOCC6)ncnc54)no3)cc12 [13b] | no | – | – | 13 | 12 | no | – | 3.1 | – | 44 | –
4 | Cc1cc(=O)oc2cc(OCC3=NOC(Cn4cnc5c(N6CCOCC6)ncnc54)C3)ccc12 (stereo not drawn) [11f] | – | no | 43 | 14 | 16 | 8% | – | – | – | – | 48
